How the values were obtained:
Aspergillus flavus = assay: Expected efficacy of antifungal agents
Aspergillus fumigatus = assay: Expected efficacy of antifungal agents
Cryptococcus neoformans = assay: Expected efficacy of antifungal agents
[1] = system: Trichophyton mentagrophytes; assay: Expected efficacy of antifungal agents
Leishmania infantum = assay: Expected efficacy of antifungal agents
Scedosporium apiospermum = assay: Expected efficacy of antifungal agents

CCC(C)n1ncn(-c2ccc(N3CCN(c4ccc(OC[C@H]5CO[C@](Cn6cncn6)(c6ccc(Cl)cc6Cl)O5)cc4)CC3)cc2)c1=O (mixture of isomers) [Itraconazole]
yes: Expected efficacy against Aspergillus flavus (Aspergillus flavus) | Expected efficacy against Aspergillus fumigatus (Aspergillus fumigatus) | Expected efficacy against Coccidioides immitis (Coccidioides immitis) | Expected efficacy against Cryptococcus neoformans (Cryptococcus neoformans) | Expected efficacy against Trichophyton mentagrophytes [1]

C[C@@H]1[C@H](O)[C@@H](C)/C=C/C=C/C=C/C=C/C=C/C=C/C=C/[C@H](O[C@@H]2O[C@H](C)[C@@H](O)[C@H](N)[C@@H]2O)C[C@@H]2O[C@](O)(C[C@@H](O)C[C@@H](O)[C@H](O)CC[C@@H](O)C[C@@H](O)CC(=O)O[C@H]1C)C[C@H](O)[C@H]2C(=O)O [Amphotericin]
yes: Expected efficacy against Aspergillus flavus (Aspergillus flavus) | Expected efficacy against Aspergillus fumigatus (Aspergillus fumigatus) | Expected efficacy against Coccidioides immitis (Coccidioides immitis) | Expected efficacy against Cryptococcus neoformans (Cryptococcus neoformans) | Expected efficacy against Leishmania infantum (Leishmania infantum)

C[C@@H](c1ncncc1F)[C@](O)(Cn1cncn1)c1ccc(F)cc1F [Voriconazole]
yes: Expected efficacy against Aspergillus flavus (Aspergillus flavus) | Expected efficacy against Aspergillus fumigatus (Aspergillus fumigatus) | Expected efficacy against Scedosporium apiospermum (Scedosporium apiospermum)
